Results as given in PubChem BioAssay (NCI).
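In this assay, cells in 96-well plates receive the compound at five concentrations for 48 hours. Endpoints are linearly interpolated between the surrounding concentrations. TGI: total growth inhibition.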

Tests used:
Test in all cases: NCI tumour cell line growth inhibition, 48 h
OVCAR-3 ovarian = tested on: OVCAR-3 ovarian
SK-MEL-2 melanoma = tested on: SK-MEL-2 melanoma
NCI-H460 lung = tested on: NCI-H460 lung
UO-31 renal = tested on: UO-31 renal
A498 renal = tested on: A498 renal
SF-295 CNS = tested on: SF-295 CNS
DMS 273 small cell lung = tested on: DMS 273 small cell lung
SK-OV-3 ovarian = tested on: SK-OV-3 ovarian
SK-MEL-5 melanoma = tested on: SK-MEL-5 melanoma
UACC-62 melanoma = tested on: UACC-62 melanoma
ACHN renal = tested on: ACHN renal
SF-539 CNS = tested on: SF-539 CNS
SW-620 colon = tested on: SW-620 colon
K-562 leukemia = tested on: K-562 leukemia
SNB-19 CNS = tested on: SNB-19 CNS
HL-60(TB) leukemia = tested on: HL-60(TB) leukemia
OVCAR-5 ovarian = tested on: OVCAR-5 ovarian
SNB-78 CNS = tested on: SNB-78 CNS
HT29 colon = tested on: HT29 colon
CCRF-CEM leukemia = tested on: CCRF-CEM leukemia
786-0 renal = tested on: 786-0 renal
SF-268 CNS = tested on: SF-268 CNS
EKVX NSCLC = tested on: EKVX NSCLC
HCC-2998 colon = tested on: HCC-2998 colon
UACC-257 melanoma = tested on: UACC-257 melanoma
SN12C renal = tested on: SN12C renal
TK-10 renal = tested on: TK-10 renal
M19-MEL melanoma = tested on: M19-MEL melanoma
RXF 393 renal = tested on: RXF 393 renal
SNB-75 CNS = tested on: SNB-75 CNS
DLD-1 colon = tested on: DLD-1 colon
IGROV1 ovarian = tested on: IGROV1 ovarian
CAKI-1 renal = tested on: CAKI-1 renal
RPMI-8226 leukemia = tested on: RPMI-8226 leukemia
U251 CNS = tested on: U251 CNS
MOLT-4 leukemia = tested on: MOLT-4 leukemia
NCI-H226 lung = tested on: NCI-H226 lung
MALME-3M melanoma = tested on: MALME-3M melanoma
OVCAR-8 ovarian = tested on: OVCAR-8 ovarian
DMS 114 small cell lung = tested on: DMS 114 small cell lung
KM12 colon = tested on: KM12 colon
SK-MEL-28 melanoma = tested on: SK-MEL-28 melanoma
HCT-116 colon = tested on: HCT-116 colon
COLO 205 colon = tested on: COLO 205 colon
LXFL 529 NSCLC = tested on: LXFL 529 NSCLC
SR leukemia = tested on: SR leukemia
NCI-H23 lung = tested on: NCI-H23 lung
A549 NSCLC = tested on: A549 NSCLC
HOP-92 NSCLC = tested on: HOP-92 NSCLC
LOX IMVI melanoma = tested on: LOX IMVI melanoma
HOP-62 NSCLC = tested on: HOP-62 NSCLC
M14 melanoma = tested on: M14 melanoma
HCT-15 colon = tested on: HCT-15 colon
OVCAR-4 ovarian = tested on: OVCAR-4 ovarian
NCI-H522 lung = tested on: NCI-H522 lung
KM20L2 colon = tested on: KM20L2 colon

## C=C1C(=O)OC2C1CC[C@H](C)C1(O)C(O)CC(=O)[C@@]21C (stereo partly specified)
OVCAR-3 ovarian
  TGI: 47.8 µM
SK-MEL-2 melanoma
  TGI: 72.1 µM
NCI-H460 lung
  TGI: > 100 µM
UO-31 renal
  TGI: 71.2 µM
A498 renal
  TGI: 36 µM
SF-295 CNS
  TGI: 61.3 µM
DMS 273 small cell lung
  TGI: 52.3 µM
SK-OV-3 ovarian
  TGI: 56 µM
SK-MEL-5 melanoma
  TGI: 31.4 µM
UACC-62 melanoma
  TGI: 25.3 µM
ACHN renal
  TGI: 43.4 µM
SF-539 CNS
  TGI: 40.3 µM
SW-620 colon
  TGI: 44 µM
K-562 leukemia
  TGI: 55.6 µM
SNB-19 CNS
  TGI: > 100 µM
HL-60(TB) leukemia
  TGI: 55.2 µM
OVCAR-5 ovarian
  TGI: 65.4 µM
SNB-78 CNS
  TGI: 84.2 µM
HT29 colon
  TGI: 48.9 µM
CCRF-CEM leukemia
  TGI: > 10 µM
786-0 renal
  TGI: 66.7 µM
SF-268 CNS
  TGI: 54.5 µM
EKVX NSCLC
  TGI: 45.1 µM
HCC-2998 colon
  TGI: 46.6 µM
UACC-257 melanoma
  TGI: 32.6 µM
SN12C renal
  TGI: 45.1 µM
TK-10 renal
  TGI: > 10 µM
M19-MEL melanoma
  TGI: 26.8 µM
RXF 393 renal
  TGI: > 10 µM
SNB-75 CNS
  TGI: 76.2 µM
DLD-1 colon
  TGI: 80.7 µM
IGROV1 ovarian
  TGI: 73.4 µM
CAKI-1 renal
  TGI: 72.7 µM
RPMI-8226 leukemia
  TGI: 94.8 µM
U251 CNS
  TGI: > 100 µM
MOLT-4 leukemia
  TGI: 42.7 µM
NCI-H226 lung
  TGI: 53.3 µM
MALME-3M melanoma
  TGI: 39.2 µM
OVCAR-8 ovarian
  TGI: 42.8 µM
DMS 114 small cell lung
  TGI: 33.9 µM
KM12 colon
  TGI: 34.1 µM
SK-MEL-28 melanoma
  TGI: 27 µM
HCT-116 colon
  TGI: 33.9 µM
COLO 205 colon
  TGI: 30.8 µM
LXFL 529 NSCLC
  TGI: > 10 µM
SR leukemia
  TGI: 47.9 µM
NCI-H23 lung
  TGI: 40.3 µM
A549 NSCLC
  TGI: > 100 µM
HOP-92 NSCLC
  TGI: 47.7 µM

## COc1c(Br)cc(Br)c(OC)c1-c1ccc[nH]1
OVCAR-3 ovarian
  TGI: > 100 µM
SK-MEL-2 melanoma
  TGI: > 100 µM
NCI-H460 lung
  TGI: > 100 µM
UO-31 renal
  TGI: > 100 µM
LOX IMVI melanoma
  TGI: > 100 µM
A498 renal
  TGI: > 100 µM
SF-295 CNS
  TGI: > 100 µM
DMS 273 small cell lung
  TGI: > 100 µM
SK-OV-3 ovarian
  TGI: > 100 µM
SK-MEL-5 melanoma
  TGI: > 100 µM
UACC-62 melanoma
  TGI: > 100 µM
ACHN renal
  TGI: > 100 µM
SF-539 CNS
  TGI: > 100 µM
SW-620 colon
  TGI: > 100 µM
K-562 leukemia
  TGI: > 100 µM
HL-60(TB) leukemia
  TGI: > 100 µM
OVCAR-5 ovarian
  TGI: > 100 µM
HOP-62 NSCLC
  TGI: > 100 µM
SNB-78 CNS
  TGI: > 100 µM
HT29 colon
  TGI: > 100 µM
CCRF-CEM leukemia
  TGI: > 100 µM
786-0 renal
  TGI: > 100 µM
SF-268 CNS
  TGI: > 100 µM
EKVX NSCLC
  TGI: > 100 µM
UACC-257 melanoma
  TGI: > 100 µM
TK-10 renal
  TGI: > 100 µM
M19-MEL melanoma
  TGI: > 100 µM
SNB-75 CNS
  TGI: > 100 µM
M14 melanoma
  TGI: > 100 µM
DLD-1 colon
  TGI: > 100 µM
IGROV1 ovarian
  TGI: > 100 µM
CAKI-1 renal
  TGI: > 100 µM
RPMI-8226 leukemia
  TGI: > 100 µM
U251 CNS
  TGI: > 100 µM
MOLT-4 leukemia
  TGI: > 100 µM
NCI-H226 lung
  TGI: > 100 µM
OVCAR-8 ovarian
  TGI: > 100 µM
HCT-15 colon
  TGI: > 100 µM
DMS 114 small cell lung
  TGI: > 100 µM
KM12 colon
  TGI: > 100 µM
OVCAR-4 ovarian
  TGI: > 100 µM
NCI-H522 lung
  TGI: > 100 µM
SK-MEL-28 melanoma
  TGI: > 100 µM
HCT-116 colon
  TGI: > 100 µM
COLO 205 colon
  TGI: > 100 µM
LXFL 529 NSCLC
  TGI: > 100 µM
NCI-H23 lung
  TGI: > 100 µM
A549 NSCLC
  TGI: > 100 µM
HOP-92 NSCLC
  TGI: > 100 µM

## O=C1NC(=O)C(C(=O)C(=O)Nc2cccc(C(F)(F)F)c2)C(=O)N1
OVCAR-3 ovarian
  TGI: > 100 µM
SK-MEL-2 melanoma
  TGI: > 100 µM
NCI-H460 lung
  TGI: > 100 µM
UO-31 renal
  TGI: > 100 µM
LOX IMVI melanoma
  TGI: > 100 µM
A498 renal
  TGI: > 100 µM
SK-OV-3 ovarian
  TGI: > 100 µM
SK-MEL-5 melanoma
  TGI: > 100 µM
UACC-62 melanoma
  TGI: > 100 µM
ACHN renal
  TGI: > 100 µM
SF-539 CNS
  TGI: > 100 µM
SW-620 colon
  TGI: > 100 µM
K-562 leukemia
  TGI: > 100 µM
SNB-19 CNS
  TGI: > 100 µM
HL-60(TB) leukemia
  TGI: > 100 µM
OVCAR-5 ovarian
  TGI: > 100 µM
HOP-62 NSCLC
  TGI: > 100 µM
SNB-78 CNS
  TGI: > 100 µM
KM20L2 colon
  TGI: > 100 µM
CCRF-CEM leukemia
  TGI: > 100 µM
786-0 renal
  TGI: > 100 µM
SF-268 CNS
  TGI: > 100 µM
EKVX NSCLC
  TGI: > 100 µM
HCC-2998 colon
  TGI: > 100 µM
UACC-257 melanoma
  TGI: > 100 µM
TK-10 renal
  TGI: > 100 µM
M19-MEL melanoma
  TGI: > 100 µM
RXF 393 renal
  TGI: > 100 µM
SNB-75 CNS
  TGI: > 100 µM
M14 melanoma
  TGI: > 100 µM
DLD-1 colon
  TGI: > 100 µM
IGROV1 ovarian
  TGI: > 100 µM
CAKI-1 renal
  TGI: > 100 µM
RPMI-8226 leukemia
  TGI: > 100 µM
U251 CNS
  TGI: > 100 µM
MOLT-4 leukemia
  TGI: > 100 µM
MALME-3M melanoma
  TGI: > 100 µM
OVCAR-8 ovarian
  TGI: > 100 µM
HCT-15 colon
  TGI: > 100 µM
DMS 114 small cell lung
  TGI: > 100 µM
KM12 colon
  TGI: > 100 µM
OVCAR-4 ovarian
  TGI: > 100 µM
NCI-H522 lung
  TGI: > 100 µM
SK-MEL-28 melanoma
  TGI: > 100 µM
HCT-116 colon
  TGI: > 100 µM
COLO 205 colon
  TGI: > 100 µM
LXFL 529 NSCLC
  TGI: > 100 µM
NCI-H23 lung
  TGI: > 100 µM
A549 NSCLC
  TGI: > 100 µM

## COC(=O)C1=C(C)N2CCOC2(C)C(C(=O)OC)C1c1ccc[nH]1 (stereo unspecified)
OVCAR-3 ovarian
  TGI: > 100 µM
SK-MEL-2 melanoma
  TGI: > 100 µM
NCI-H460 lung
  TGI: > 100 µM
UO-31 renal
  TGI: > 100 µM
SF-295 CNS
  TGI: > 100 µM
SK-MEL-5 melanoma
  TGI: > 100 µM
UACC-62 melanoma
  TGI: > 100 µM
ACHN renal
  TGI: > 100 µM
SF-539 CNS
  TGI: > 100 µM
SW-620 colon
  TGI: > 100 µM
K-562 leukemia
  TGI: > 100 µM
SNB-19 CNS
  TGI: > 100 µM
HL-60(TB) leukemia
  TGI: > 100 µM
HOP-62 NSCLC
  TGI: > 100 µM
KM20L2 colon
  TGI: > 100 µM
HT29 colon
  TGI: > 100 µM
CCRF-CEM leukemia
  TGI: > 100 µM
SF-268 CNS
  TGI: > 100 µM
EKVX NSCLC
  TGI: > 100 µM
HCC-2998 colon
  TGI: > 100 µM
UACC-257 melanoma
  TGI: > 100 µM
TK-10 renal
  TGI: > 100 µM
M19-MEL melanoma
  TGI: > 100 µM
RXF 393 renal
  TGI: > 100 µM
SNB-75 CNS
  TGI: 82.9 µM
M14 melanoma
  TGI: > 100 µM
DLD-1 colon
  TGI: > 100 µM
IGROV1 ovarian
  TGI: > 100 µM
CAKI-1 renal
  TGI: > 100 µM
RPMI-8226 leukemia
  TGI: > 100 µM
MOLT-4 leukemia
  TGI: > 100 µM
NCI-H226 lung
  TGI: > 100 µM
OVCAR-8 ovarian
  TGI: > 100 µM
DMS 114 small cell lung
  TGI: > 100 µM
KM12 colon
  TGI: > 100 µM
OVCAR-4 ovarian
  TGI: > 100 µM
SK-MEL-28 melanoma
  TGI: > 100 µM
HCT-116 colon
  TGI: > 100 µM
COLO 205 colon
  TGI: > 100 µM
LXFL 529 NSCLC
  TGI: > 100 µM
SR leukemia
  TGI: > 100 µM
NCI-H23 lung
  TGI: > 100 µM
A549 NSCLC
  TGI: > 100 µM
HOP-92 NSCLC
  TGI: > 100 µM
